Measurements from patent US20250304594A1, “METHYL (R)-2-(FLUOROMETHYL)-5-OXO-4-PHENYL-4,5,6,7-TETRAHYDRO-1H-CYCLOPENTA[B]PYRIDINE-3-CARBOXYLATE AND METHYL (R)-2-(FLUOROMETHYL)-5-OXO-4-PHENYL-1,4,5,7-TETRAHYDROFURO[3,4-B]PYRIDINE-3-CARBOXYLATE AS Cav1,2 ACTIVATORS” (Novartis AG, priority 2020, published 2025).

Assays:
[1] = molecular target: T1, human CaV1.2 (Homo sapiens, UniProt Q13936); experiment: Sophion QPatch dose-response assay, whole-cell voltage clamp of barium currents in CaV1.2-HEK293(AUX) cells; format: cell-based; conditions: for Qpatch Emax: maximal fold change of peak inward current
T1 construct: expressed in transfected cells; host or cells: Flp-In 293 T-Rex (HEK293), monoclonal CaV1.2-HEK293(AUX) clone 2-19B; doxycycline-induced auxiliary subunits
Text: (§1) The monoclonal CaV1.2-HEK293(AUX) cell line constitutively expresses human CaV1.2 alpha1C (α1C) subunit (CACNA1C) and has doxycycline-inducible expression of the alpha2delta (α2Δ2) auxiliary subunit (CACNA2D2) and beta2 (02) auxiliary subunit (CACNB2). To generate the cell line, expression vectors pcDNA5.0/FRT-TO-CACNA2D2-FCS-P2A-CACNB2 and pCMV6-entry-CACNA1C were established via gene synthesis and cloning. Here, pcDNA5.0/FRT-TO plasmid is from Invitrogen, pCMV6-entry is from Origene, FCS stands for Furin Cleavage Site, P2A is a peptide self-cleavage sequence derived from porcine teschovirus-1, and FRT is the Flippase recognition target site. Next, parental line Flp-In™ 293 T-Rex (Invitrogen) was transfected with pcDNA5.0/FRT-TO-CACNA2D2-FCS-P2A-CACNB2 and Flippase vector pOG44 (Invitrogen) to establish targeted integration of the CACNA2D2-FCS-P2A-CACNB2 expression cassette into the pre-engineered FRT site in Flp-In™ 293 T-Rex. This intermediate cell line was then transfected with pCMV6-entry-CACNA1C to establish stable CACNA1C expression. Clonal isolation was achieved under Neomycin selection.
Electrophysiological Characterization of CaV1.2 Activators Using CaV1.2-HEK293(AUX) Cell Line and QPatch
(§2) 24 hours prior an electrophysiology experiment, doxycycline (1 μg/ml) was added to the growth medium (Table 6), and 25 μM of verapamil was co-applied to prevent calcium influx triggered cell death. Cell confluency should reach 70%-80% right before the experiment. To harvest cells (from a T175 cm^2 flask as an example), growth media were removed completely, and the cells were rinsed with 10 mL of D-PBS. D-PBS was aspirated, and 10 mL of Detachin (Genlantis) was added and the plate was placed in a 37° C. incubator for 10 minutes. Detached cells were placed into a 15 mL conical tube and spun at 1000 rpm for 2 minutes. Supernatant was removed, and cells were re-suspended in QPatch complete media (Table 7) to desired cell density of 1.5-3 million cells per QPatch run. Each experimental run uses 1.5 mL of cells.
(§3) The cells suspension was taken to the Sophion QPatch platform that uses whole-cell voltage clamp to measure barium currents conducted through CaV1.2 on single-hole QPlates. Extracellular and intracellular patch clamp solutions are described in Tables 7 and 8, respectively. A dose-response assay protocol was used to determine the maximal fold change of peak inward current (Emax) and potency (EC50) of each compound. The protocol had eight liquid periods. The first liquid period was to stabilize current amplitude, which was monitored using repetitive 200-ms voltage pulses stepping from −80 mV to 0 mV. The second liquid period was to determine baseline current amplitude in the presence of vehicle control, using a single 20-ms voltage pulse stepping from −80 mV to 0 mV. The third through eighth liquid periods were used to ascertain a 6-dose response to compound treatments, also using single 20-ms voltage pulses stepping from −80 mV to 0 mV. The EC50 was generated using the following equation Iconcentration=Ibase+(Ifull−Ibase)*c^n/(XC50^n+c^n), where c is the concentration and n is the Hill coefficient constant. Ifull is the maximal current achievable, and Ibase is 0. A channel biophysics assay protocol was used to determine channel gating properties including current-voltage relationship (IV curves), half-way channel activation voltage (V1/2), rate of channel inactivation (tau), and amplitude of tail current. Among these, V1/2 was derived from fitting equation G(V)=Gvmin+(Gvmax−Gvmin)/(1+exp(−(V−V½)/Vslope)), where G stands for conductance, Gvmin equals 0, Gvmax is the maximal conductance, and Vslope is a slope factor. G(V) was pre-calculated from equation G(V)=I(V)/(V−0.06), for each experimentally applied depolarization potential (V) and the corresponding current amplitude (I(V)), and 0.06 in the equation was the experimentally determined reversal potential in volts. The protocol had four liquid periods.

[2] = molecular target: T1, human CaV1.2; experiment: QPatch channel biophysics assay (channel gating, V1/2 of activation, inactivation) in CaV1.2-HEK293(AUX) cells; format: cell-based
Text: as §1, with “selection. A cell clone (2-19B) with good voltage-dependent Barium current (see electrophysiology methods below) was selected for characterization of CaV1.2 activators.” for “selection.”
as §2
as §3, with “The protocol had four liquid periods.” left out

[3] = Table 9, 6-point dose response, 10 determinations per concentration, n = 1 unless * n = 2
[4] = Table 9, shift of half-way channel activation voltage V1/2
[5] = Table 10 comparative examples, single enantiomers of reported racemates

T1 sequence (Q13936 1-2138 isoform Q13936-23): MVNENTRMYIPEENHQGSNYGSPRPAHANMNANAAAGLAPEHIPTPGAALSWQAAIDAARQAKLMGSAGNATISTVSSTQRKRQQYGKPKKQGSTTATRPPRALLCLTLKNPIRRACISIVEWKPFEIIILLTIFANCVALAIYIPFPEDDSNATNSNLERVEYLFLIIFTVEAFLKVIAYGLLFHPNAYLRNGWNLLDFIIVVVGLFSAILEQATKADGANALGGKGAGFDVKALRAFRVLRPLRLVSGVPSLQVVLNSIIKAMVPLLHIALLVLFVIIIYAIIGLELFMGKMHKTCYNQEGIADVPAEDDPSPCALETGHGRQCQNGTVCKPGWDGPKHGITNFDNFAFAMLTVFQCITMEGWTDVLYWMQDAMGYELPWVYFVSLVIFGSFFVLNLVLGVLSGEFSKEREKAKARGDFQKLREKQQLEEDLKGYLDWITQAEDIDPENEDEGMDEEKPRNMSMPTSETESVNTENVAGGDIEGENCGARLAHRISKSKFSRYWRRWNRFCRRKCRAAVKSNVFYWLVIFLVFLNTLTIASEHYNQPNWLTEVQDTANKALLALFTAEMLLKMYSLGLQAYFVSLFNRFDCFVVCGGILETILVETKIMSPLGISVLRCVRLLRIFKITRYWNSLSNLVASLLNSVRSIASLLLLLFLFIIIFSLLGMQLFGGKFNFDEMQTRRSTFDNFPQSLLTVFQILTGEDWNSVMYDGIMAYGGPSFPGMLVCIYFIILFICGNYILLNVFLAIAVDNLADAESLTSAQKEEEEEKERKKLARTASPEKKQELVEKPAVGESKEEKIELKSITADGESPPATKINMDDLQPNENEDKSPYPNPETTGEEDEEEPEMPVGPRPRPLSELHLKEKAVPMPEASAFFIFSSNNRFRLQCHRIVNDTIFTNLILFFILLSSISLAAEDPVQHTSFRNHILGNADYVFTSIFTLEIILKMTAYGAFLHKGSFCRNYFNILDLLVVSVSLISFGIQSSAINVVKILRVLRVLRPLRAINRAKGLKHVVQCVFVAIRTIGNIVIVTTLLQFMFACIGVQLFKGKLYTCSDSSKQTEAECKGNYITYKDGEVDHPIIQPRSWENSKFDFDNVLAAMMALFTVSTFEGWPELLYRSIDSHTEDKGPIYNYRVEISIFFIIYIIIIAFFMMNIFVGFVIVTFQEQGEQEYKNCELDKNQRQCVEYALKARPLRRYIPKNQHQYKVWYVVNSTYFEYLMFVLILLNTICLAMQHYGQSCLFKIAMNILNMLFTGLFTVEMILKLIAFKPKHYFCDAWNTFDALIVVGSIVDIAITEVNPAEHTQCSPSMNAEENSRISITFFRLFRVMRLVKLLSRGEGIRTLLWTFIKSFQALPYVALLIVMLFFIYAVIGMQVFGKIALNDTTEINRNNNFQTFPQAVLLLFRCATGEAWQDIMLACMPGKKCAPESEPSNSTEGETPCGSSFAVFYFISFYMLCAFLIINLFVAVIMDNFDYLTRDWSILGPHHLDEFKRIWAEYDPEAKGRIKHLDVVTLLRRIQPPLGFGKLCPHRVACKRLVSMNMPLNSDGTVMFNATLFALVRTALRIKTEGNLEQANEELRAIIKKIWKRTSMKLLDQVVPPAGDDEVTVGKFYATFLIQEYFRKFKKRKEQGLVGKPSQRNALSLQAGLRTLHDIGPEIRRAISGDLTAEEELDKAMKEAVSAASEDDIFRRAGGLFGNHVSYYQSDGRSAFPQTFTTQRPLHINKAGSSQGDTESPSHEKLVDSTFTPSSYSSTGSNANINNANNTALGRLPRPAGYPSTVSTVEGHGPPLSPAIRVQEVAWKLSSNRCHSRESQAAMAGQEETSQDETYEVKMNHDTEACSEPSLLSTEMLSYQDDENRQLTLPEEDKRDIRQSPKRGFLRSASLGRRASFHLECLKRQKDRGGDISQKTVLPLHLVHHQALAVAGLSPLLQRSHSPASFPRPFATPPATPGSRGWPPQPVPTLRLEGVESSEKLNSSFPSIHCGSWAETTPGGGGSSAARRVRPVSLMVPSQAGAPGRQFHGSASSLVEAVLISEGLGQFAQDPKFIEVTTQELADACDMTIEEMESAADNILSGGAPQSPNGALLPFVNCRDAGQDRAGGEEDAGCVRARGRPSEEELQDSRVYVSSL
T1 sequence (Q9NY47 19-1001 partner limits assumed): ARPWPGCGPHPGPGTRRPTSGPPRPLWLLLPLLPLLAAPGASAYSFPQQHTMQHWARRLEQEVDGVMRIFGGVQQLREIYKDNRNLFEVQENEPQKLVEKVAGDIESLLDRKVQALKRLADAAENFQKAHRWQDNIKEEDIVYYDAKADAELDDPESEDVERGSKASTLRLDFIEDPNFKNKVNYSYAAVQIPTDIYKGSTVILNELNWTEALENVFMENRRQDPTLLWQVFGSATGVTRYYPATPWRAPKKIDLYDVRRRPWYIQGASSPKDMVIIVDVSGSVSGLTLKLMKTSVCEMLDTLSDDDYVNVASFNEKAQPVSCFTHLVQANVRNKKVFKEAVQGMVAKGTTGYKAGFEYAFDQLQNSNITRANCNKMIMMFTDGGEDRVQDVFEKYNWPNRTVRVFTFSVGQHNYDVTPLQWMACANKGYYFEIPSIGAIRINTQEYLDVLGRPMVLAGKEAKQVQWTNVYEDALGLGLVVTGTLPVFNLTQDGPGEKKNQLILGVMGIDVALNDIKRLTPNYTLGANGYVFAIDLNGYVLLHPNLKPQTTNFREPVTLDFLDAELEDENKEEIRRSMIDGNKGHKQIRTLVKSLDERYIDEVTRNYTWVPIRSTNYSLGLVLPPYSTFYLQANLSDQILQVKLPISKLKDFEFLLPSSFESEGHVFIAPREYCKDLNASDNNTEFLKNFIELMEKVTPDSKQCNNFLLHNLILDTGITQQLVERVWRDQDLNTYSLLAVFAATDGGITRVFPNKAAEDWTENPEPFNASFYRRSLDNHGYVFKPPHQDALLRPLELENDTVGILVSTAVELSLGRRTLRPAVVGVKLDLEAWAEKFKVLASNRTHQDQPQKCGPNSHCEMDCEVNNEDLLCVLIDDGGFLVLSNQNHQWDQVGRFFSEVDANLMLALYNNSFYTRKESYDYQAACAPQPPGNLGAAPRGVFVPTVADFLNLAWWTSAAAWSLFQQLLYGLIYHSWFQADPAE
T1 sequence (Q9NY47 1002-1150 partner limits assumed): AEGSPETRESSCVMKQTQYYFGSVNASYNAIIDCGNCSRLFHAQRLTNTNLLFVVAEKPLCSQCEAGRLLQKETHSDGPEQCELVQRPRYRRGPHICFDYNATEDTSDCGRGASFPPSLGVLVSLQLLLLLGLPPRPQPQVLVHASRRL
T1 sequence (Q08289 whole entry partner): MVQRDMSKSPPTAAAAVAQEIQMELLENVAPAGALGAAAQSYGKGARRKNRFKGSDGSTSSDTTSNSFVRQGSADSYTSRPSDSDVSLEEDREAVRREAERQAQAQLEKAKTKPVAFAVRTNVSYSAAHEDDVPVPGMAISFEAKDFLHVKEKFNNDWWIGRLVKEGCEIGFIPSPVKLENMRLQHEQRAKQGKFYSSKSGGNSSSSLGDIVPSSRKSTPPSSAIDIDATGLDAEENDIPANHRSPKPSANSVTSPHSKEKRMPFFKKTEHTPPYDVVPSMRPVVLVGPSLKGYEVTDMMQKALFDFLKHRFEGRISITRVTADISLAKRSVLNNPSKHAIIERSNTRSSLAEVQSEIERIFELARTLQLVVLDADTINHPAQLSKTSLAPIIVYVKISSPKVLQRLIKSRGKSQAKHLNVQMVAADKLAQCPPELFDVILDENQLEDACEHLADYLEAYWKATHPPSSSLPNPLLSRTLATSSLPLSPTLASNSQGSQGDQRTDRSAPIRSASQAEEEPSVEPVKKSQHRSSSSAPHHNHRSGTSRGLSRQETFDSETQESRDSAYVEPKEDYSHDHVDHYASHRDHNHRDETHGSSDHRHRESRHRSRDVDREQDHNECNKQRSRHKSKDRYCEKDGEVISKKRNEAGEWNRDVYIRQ

Row | SMILES | EC50 [1, 3] [nM] | Qpatch Emax ([1]; Table 9, n = 1 unless * n = 2) | Biophysics voltage shift (mV) [2, 4] [mV] | EC50 [1, 5] [nM] | Qpatch Emax ([1]; Table 10 comparative examples) | Biophysics voltage shift (mV) ([2]; Table 10 comparative examples)
1 | COC(=O)C1=C(CF)NC2=C(C(=O)OC2)[C@H]1c1cc(F)cc(F)c1CC(F)F (single isomer, unassigned) [Example 12] | 80 | 2.3 | −3.4 | – | – | –
2 | COC(=O)C1=C(CF)NC2=C(C(=O)OC2)[C@H]1c1cc(F)ccc1OC(F)F (single isomer, unassigned) [Example 20] | 220 | 3.0 | −8.5 | – | – | –
3 | COC(=O)C1=C(CF)NC2=C(C(=O)OC2)[C@H]1c1cc(F)ccc1C1CC1 (single isomer, unassigned) [Example 21] | 30 | 2.8 | −8.1 | – | – | –
4 | COC(=O)C1=C(C)NC2=C(C(=O)OC2)[C@H]1c1ccccc1C (single isomer, unassigned) [CAS# 85825-32-7, reference compound] | – | – | – | 2240 | – | –
5 | COC(=O)C1=C(CF)NC2=C(C(=O)CC2)[C@H]1c1cc(F)cc(F)c1[C@H](C)F (single isomer, unassigned) [Example 29, methyl (R)-4-(3,5-difluoro-2-((S or R)-1-fluoroethyl)phenyl)-2-(fluoromethyl)-5-oxo-4,5,6,7-tetrahydro-1H-cyclopenta[b]pyridine-3-carboxylate] | 50 | 1.4 | – | – | – | –
6 | COC(=O)C1=C(CF)NC2=C(C(=O)CC2)[C@H]1c1cccc(F)c1[C@@H](C)F (single isomer, unassigned) [Example 27, methyl (R)-4-(3-fluoro-2-((R or S)-1-fluoroethyl)phenyl)-2-(fluoromethyl)-5-oxo-4,5,6,7-tetrahydro-1H-cyclopenta[b]pyridine-3-carboxylate] | 30 | 1.5 | −8.7 | – | – | –
7 | CCOC(=O)C1=C(C)NC2=C(C(=O)OC2)[C@H]1c1ccccc1OCc1ccccc1 (single isomer, unassigned) [RS30124, reference compound] | – | – | – | 45 | 4.3 | −15.4
8 | COC(=O)C1=C(CF)NC2=C(C(=O)OC2)[C@H]1c1ccccc1C(F)(F)F (single isomer, unassigned) [Example 24] | 160 | – | – | – | – | –
9 | COC(=O)C1=C(CF)NC2=C(C(=O)OC2)[C@H]1c1ccccc1C1CC1 (single isomer, unassigned) [Example 22] | 50 | 2.8 | −8.6 | – | – | –
10 | COC(=O)C1=C(C)NC(C)=C([N+](=O)[O-])[C@H]1c1ccccc1C(F)(F)F (single isomer, unassigned) [reference compound] | – | – | – | – | 3.9 | –
11 | COC(=O)C1=C(CF)NC2=C(C(=O)CC2)[C@H]1c1cc(F)cc(F)c1C1CC1 (single isomer, unassigned) [Example 14] | 90 | 1.9 | −5.5 | – | – | –
12 | COC(=O)C1=C(CF)NC2=C(C(=O)CC2)[C@H]1c1cccc(F)c1CC(F)F (single isomer, unassigned) [Example 26] | 300 | 2.0 | −4.3 | – | – | –
13 | COC(=O)C1=C(CF)NC2=C(C(=O)CC2)[C@H]1c1cccc(F)c1CC(F)(F)F (single isomer, unassigned) [Example 25] | 40 | 1.7 | −4.2 | – | – | –
14 | CCc1ccccc1[C@H]1C(C(=O)OC)=C(CF)NC2=C1C(=O)OC2 (single isomer, unassigned) [Example 30] | 90 | 1.8 | – | – | – | –
15 | COC(=O)C1=C(CF)NC2=C(C(=O)OC2)[C@H]1c1cccc(F)c1OC(F)F (single isomer, unassigned) [Example 19] | 60 | 1.8 | −6.7 | – | – | –
16 | COC(=O)C1=C(C(F)F)NC2=C(C(=O)OC2)[C@H]1c1cccc(F)c1[C@@H](C)F (single isomer, unassigned) [Example 31, methyl (R)-2-(difluoromethyl)-4-(3-fluoro-2-((R or S)-1-fluoroethyl)phenyl)-5-oxo-1,4,5,7-tetrahydrofuro[3,4-b]pyridine-3-carboxylate] | 290 | 1.6 | – | – | – | –
